Tests used:
Assay type in all cases: cell-based
[1] = molecular target: T1, Btk (Tyr223) phosphorylation in Ramos cells (Homo sapiens, UniProt Q06187); assay: Western blotting assay for Btk (Example 73); conditions: 45 min, 6 μg/mL anti-IgM, read-out: Btk Inhibition
T1 construct: endogenous in cells; host or cells: Ramos cells (ATCC)
Procedure: (§1) All cell lines were obtained from the American Type Culture Collection and were maintained at 37° C. with 5% CO2. Ramos cell line was maintained in media supplemented with 10% fetal bovine serum, penicillin (100 units/mL) and streptomycin (100 μg/mL). NK-92 cell line was maintained in media supplemented with 10% fetal bovine serum and 10% horse serum, penicillin (100 units/mL) and streptomycin (100 μg/mL), IL-2 10 ng/mL. Goat F(ab′)2 Anti-Human IgM-UNLB was obtained from SouthernBiotech. IL-2 was obtained from Peprotech.
Ramos cells were treated with compounds at indicated doses for 45 min at room temperature, followed by stimulation of 6 μg/mL of anti-IgM for 30 min, and then lysed. Western blots were performed on the cell lysate using Phospho-Btk (Tyr223), Phospho-Btk (Tyr551), Btk, Phospho-PLCγ2 (Tyr1217), PLCγ2, Phospho-p44/42 MAPK (Erk1/2) (Thr202/Tyr204) and p44/42 MAPK (Erk1/2) antibodies (Cell Signaling Technology). The density of blotting band was acquired using ImageJ software, and the IC50 of Btk (Tyr223) phosphorylation was fitted using a non-linear regression model by GraphPad Prism.

[2] = molecular target: T2, free Btk protein from Ramos cells (Homo sapiens, UniProt Q06187); assay: Btk target site occupancy ELISA assay; conditions: 1 h, ELISA, read-out: Btk Occupancy Assay (IC50)
T2 construct: endogenous in cells; host or cells: Ramos cells (ATCC)
T2 sequence (Q06187 whole entry): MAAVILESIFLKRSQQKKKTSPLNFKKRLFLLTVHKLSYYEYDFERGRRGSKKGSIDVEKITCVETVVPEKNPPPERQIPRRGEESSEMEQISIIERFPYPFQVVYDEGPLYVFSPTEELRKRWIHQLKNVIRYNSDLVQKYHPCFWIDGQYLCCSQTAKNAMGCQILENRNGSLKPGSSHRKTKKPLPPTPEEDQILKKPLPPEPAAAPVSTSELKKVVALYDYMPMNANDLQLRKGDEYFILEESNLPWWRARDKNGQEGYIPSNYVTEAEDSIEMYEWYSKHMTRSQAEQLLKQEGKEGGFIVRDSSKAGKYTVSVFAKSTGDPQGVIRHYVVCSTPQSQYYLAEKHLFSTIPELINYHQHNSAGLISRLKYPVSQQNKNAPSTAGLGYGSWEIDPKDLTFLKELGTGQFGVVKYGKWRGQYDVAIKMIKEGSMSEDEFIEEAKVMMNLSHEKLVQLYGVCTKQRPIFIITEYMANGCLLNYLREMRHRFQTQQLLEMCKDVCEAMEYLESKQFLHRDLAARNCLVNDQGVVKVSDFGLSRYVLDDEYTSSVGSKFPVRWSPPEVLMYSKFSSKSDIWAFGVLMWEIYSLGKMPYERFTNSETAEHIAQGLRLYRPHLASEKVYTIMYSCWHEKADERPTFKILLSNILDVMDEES
Procedure: (§2) Ramos cells were treated with Compound I-1 at indicated concentrations for 1 h, followed by stimulation with 6 μg/mL of IgM for 30 mm, and then lysed. Lysates were incubated with Compound I-21 (biotin labeled) at a final concentration of 1 μM in a PBS, 0.05% Tween-20, 1% BSA solution while shaking for 1 h at room temperature. Samples were transferred to a streptavidin-coated 96-well ELISA plate and mixed while shaking for 1 h at room temperature. The Btk antibody (BD 611116, 1:1000 dilution in PBS+0.05% Tween-20+0.5% BSA) was then applied and incubated for 1 h at room temperature. After wash, goat anti-mouse-HRP (Pierce 31432, 1:1000 dilution in PBS+0.05% Tween-20+0.5% BSA) was added and incubated for 1 h at room temperature. The ELISA was developed with addition of tetramethyl benzidine (TMB) followed by Stop Solution and read at OD 450 nm.
as §2, with “Compounds” for “Compound I-1”, “anti-IgM” for “IgM”, “diluted” for “dilution”, “tetramethylbenzidine” for “tetramethyl benzidine”

[3] = test system: Stat5 phosphorylation in NK-92 cells; assay: Western blotting assay for Stat5; conditions: NK92, 1 hour, IL-2 stimulation, read-out: Stat5 inhibition
Procedure: as §1
NK-92 cells were treated with compounds at the dosed indicated for 1 hour in incubator, followed by the IL-2 stimulation for 15 minutes. Cells were then collected and lysed to prepare the cellular extraction. Western blots were performed on cell lysate using Phospho-Jak3, Jak3, Phospho-Stat5, Stat5 antibodies (Cell Signaling Technology). The intensity of blotting band was acquired using Image Lab (Bio-Rad) software, and the IC50 of target was generated with GraphPad Prism.

T1 sequence (Q06187 whole entry): as above

SMILES | IC50 [1] | IC50 [2] | IC50 [3]
C=CC(=O)Nc1cccc(Oc2nc(Nc3ccc4c(c3)CCN4CCOC)nc3[nH]ccc23)c1 [Compound I-36a, N-(3-(2-(1-(2-methoxyethyl)indolin-5-ylamino)-7H-pyrrolo[2,3-d]pyrimidin-4-yloxy)phenyl)acrylamide] | 10 to 100 nM |  | 200 to 400 nM
C=CC(=O)Nc1cccc(Oc2nc(Nc3cc(F)c(OCCOC)c(F)c3)nc3[nH]ccc23)c1 [Compound I-37a, N-(3-(2-(3,5-difluoro-4-(2-methoxyethoxy)phenylamino)-7H-pyrrolo[2,3-d]pyrimidin-4-yloxy)phenyl)acrylamide] | 10 to 100 nM |  | ≥ 400 nM
C=CCN(CCOC)c1ccc(Nc2ncc(OC)c(Oc3cccc(NC(=O)C=C)c3)n2)cc1 [Compound I-39a] | 10 to 100 nM |  | ≥ 400 nM
C=CC(=O)Nc1cccc(Oc2nc(Nc3ccc(N(C)CCOC)cc3)nc3[nH]ccc23)c1 [Compound I-41a, N-(3-(2-(4-((2-methoxyethyl)(methyl)amino)phenylamino)-7H-pyrrolo[2,3-d]pyrimidin-4-yloxy)phenyl)acrylamide] | 10 to 100 nM |  | 200 to 400 nM
C=CC(=O)Nc1cccc(Oc2nc(Nc3ccc(OCCS(C)(=O)=O)cc3)ncc2OC)c1 [Compound I-44a, N-(3-(5-methoxy-2-(4-(2-(methylsulfonyl)ethoxy)phenylamino)pyrimidin-4-yloxy)phenyl)acrylamide] | ≤ 10 nM |  | 200 to 400 nM
C=CC(=O)Nc1cccc(Oc2nc(Nc3ccc4c(ccn4CCOC)c3)ncc2OC)c1 [Compound I-45a, N-(3-(5-methoxy-2-(1-(2-methoxyethyl)-1H-indol-5-ylamino)pyrimidin-4-yloxy)phenyl)acrylamide] | 10 to 100 nM |  | 200 to 400 nM
C=CC(=O)Nc1cccc(Oc2nc(Nc3ccc(N(C4CC4)[C@H]4CCN(CCOC)C4)cc3)ncc2OC)c1 [Compound I-53a, (S)—N-(3-(2-(4-(cyclopropyl(1-(2-methoxyethyl)pyrrolidin-3-yl)amino)phenylamino)-5-methoxypyrimidin-4-yloxy)phenyl)acrylamide] | ≤ 10 nM |  | ≥ 400 nM
C=CC(=O)Nc1cccc(Oc2nc(Nc3ccc4c(c3)CCN4C(C)=O)ncc2OC)c1 [Compound I-56a, N-(3-(2-(1-acetylindolin-5-ylamino)-5-methoxypyrimidin-4-yloxy)phenyl)acrylamide] | ≤ 10 nM |  | 200 to 400 nM
C=CC(=O)Nc1cccc(Oc2nc(Nc3ccc(N(C)[C@H]4CCN(CCS(C)(=O)=O)C4)cc3)ncc2OC)c1 [Compound I-57a, (S)—N-(3-(5-methoxy-2-(4-(methyl(1-(2-(methylsulfonyl)ethyl)pyrrolidin-3-yl)amino)phenylamino)pyrimidin-4-yloxy)phenyl)acrylamide] | ≤ 10 nM |  | 200 to 400 nM
C=CC(=O)Nc1cccc(Oc2nc(Nc3ccc(N(C)[C@H]4CCN(C(C)=O)C4)cc3)ncc2OC)c1 [Compound I-58a, (S)—N-(3-(2-(4-((1-acetylpyrrolidin-3-yl)(methyl)amino)phenylamino)-5-methoxypyrimidin-4-yloxy)phenyl)acrylamide] | ≤ 10 nM | ≤ 10 nM | ≥ 400 nM

Further lines, results first:

IC50 [1] | IC50 [2] | IC50 [3] | SMILES
≤ 10 nM | ≤ 10 nM |  | C=CC(=O)Nc1cccc(Oc2nc(Nc3ccc(N[C@H]4CCN(CCF)C4)cc3)ncc2F)c1 [Compound I-20, (S)—N-(3-(5-fluoro-2-(4-(1-(2-fluoroethyl)pyrrolidin-3-ylamino)phenylamino)pyrimidin-4-yloxy)phenyl)acrylamide]
10 to 100 nM |  | ≥ 400 nM | C=CC(=O)Nc1cccc(Oc2nc(Nc3ccc(N(CCC)CCOC)cc3)ncc2OC)c1 [Compound I-38a, N-(3-(5-methoxy-2-(4-((2-methoxyethyl)(propyl)amino)phenylamino)pyrimidin-4-yloxy)phenyl)acrylamide]
≤ 10 nM |  | ≥ 400 nM | C=CC(=O)Nc1cccc(Oc2nc(Nc3ccc(N[C@H]4CCN(CCOC)C4)cc3)nc3[nH]ccc23)c1 [Compound I-40a, (S)—N-(3-(2-(4-(1-(2-methoxyethyl)pyrrolidin-3-ylamino)phenylamino)-7H-pyrrolo[2,3-d]pyrimidin-4-yloxy)phenyl)acrylamide]
≤ 10 nM |  | ≥ 400 nM | C=CC(=O)Nc1cccc(Oc2nc(Nc3ccc(N(C)[C@H]4CCN(CCOC)C4)cc3)ncc2OC)c1 [Compound I-42a, (S)—N-(3-(5-methoxy-2-(4-((1-(2-methoxyethyl)pyrrolidin-3-yl)(methyl)amino)phenylamino)pyrimidin-4-yloxy)phenyl)acrylamide]
≤ 10 nM |  | 200 to 400 nM | C=CC(=O)Nc1cccc(Oc2nc(Nc3ccc4c(ccn4CCF)c3)ncc2OC)c1 [Compound I-43a, N-(3-(2-(1-(2-fluoroethyl)-1H-indol-5-ylamino)-5-methoxypyrimidin-4-yloxy)phenyl)acrylamide]
10 to 100 nM |  | ≥ 400 nM | C=CC(=O)Nc1cccc(Oc2nc(Nc3ccc(N(C)CCOC)nc3)nc3[nH]ccc23)c1 [Compound I-46a, N-(3-(2-(6-((2-methoxyethyl)(methyl)amino)pyridin-3-ylamino)-7H-pyrrolo[2,3-d]pyrimidin-4-yloxy)phenyl)acrylamide]
≤ 10 nM |  | 200 to 400 nM | C=CC(=O)Nc1cccc(Oc2nc(Nc3ccc(N4CCN(CCOC)CC4)cc3)nc3[nH]ccc23)c1 [Compound I-47a, N-(3-(2-(4-(4-(2-methoxyethyl)piperazin-1-yl)phenylamino)-7H-pyrrolo[2,3-d]pyrimidin-4-yloxy)phenyl)acrylamide]
≤ 10 nM |  | 200 to 400 nM | C=CC(=O)Nc1cccc(Oc2nc(Nc3ccc(N4CCN(CCOC)CC4)c(F)c3)nc3[nH]ccc23)c1 [Compound I-48a, N-(3-(2-(3-fluoro-4-(4-(2-methoxyethyl)piperazin-1-yl)phenylamino)-7H-pyrrolo[2,3-d]pyrimidin-4-yloxy)phenyl)acrylamide]
≤ 10 nM |  | ≥ 400 nM | C=CC(=O)Nc1cccc(Oc2nc(Nc3ccc(N(C)[C@H]4CCN(CCOC)C4)cc3)nc3[nH]ccc23)c1 [Compound I-49a, (S)—N-(3-(2-(4-((1-(2-methoxyethyl)pyrrolidin-3-yl)(methyl)amino)phenylamino)-7H-pyrrolo[2,3-d]pyrimidin-4-yloxy)phenyl)acrylamide]
10 to 100 nM |  | ≥ 400 nM | C=CC(=O)Nc1cccc(Oc2nc(Nc3ccc4c(c3)CN(CCOC)C4)ncc2OC)c1 [Compound I-50a, N-(3-(5-methoxy-2-(2-(2-methoxyethyl)isoindolin-5-ylamino)pyrimidin-4-yloxy)phenyl)acrylamide]
≤ 10 nM |  | ≥ 400 nM | C=CC(=O)Nc1cccc(Oc2nc(Nc3ccc(N(CC)[C@H]4CCN(CCOC)C4)cc3)ncc2OC)c1 [Compound I-51a, (S)—N-(3-(2-(4-(ethyl(1-(2-methoxyethyl)pyrrolidin-3-yl)amino)phenylamino)-5-methoxypyrimidin-4-yloxy)phenyl)acrylamide]
≤ 10 nM |  | ≥ 400 nM | C=CC(=O)Nc1cccc(Oc2nc(Nc3ccc4c(c3)CC(=O)N4CCOC)ncc2OC)c1 [Compound I-52a, N-(3-(5-methoxy-2-(1-(2-methoxyethyl)-2-oxoindolin-5-ylamino)pyrimidin-4-yloxy)phenyl)acrylamide]
≤ 10 nM |  | ≥ 400 nM | C=CC(=O)Nc1cccc(Oc2nc(Nc3ccc(N4CCN(CCS(C)(=O)=O)CC4)cc3)ncc2OC)c1 [Compound I-54a, N-(3-(5-methoxy-2-(4-(4-(2-(methylsulfonyl)ethyl)piperazin-1-yl)phenylamino)pyrimidin-4-yloxy)phenyl)acrylamide]

Reference: US9920074B2 (ACEA BIOSCIENCES INC., priority 2013, dated 2018)
